From publication PMC7782793, “Hydroxamic acid-modified peptide microarrays for profiling isozyme-selective interactions and inhibition of histone deacetylases” (Nature Communications, 2021)
“And” between values parts separate entries of the source, which are not always exact repeats. Equal entries are not always repeated. Marks after values point to notes of the source that are not given here. Non-standard residues stand in square brackets, D forms with d. Residues, ends and D or L forms follow the SMILES beside them. *: point of attachment. Asu = N[C@@H](CCCCCC(=O)O)C(=O)O; NHOH = ON*

Columns and labels:
[1] = biological target: T1, HDAC1 (Homo sapiens, UniProt Q13547); test: HDAC inhibition assay (fluorogenic, Ac-Leu-Gly-Lys(Ac)-AMC); type: biochemical; details: for HDAC1 dose-response data (relative enzyme activity), Fig. 6 + S. Fig. 10: duplicate columns
T1 construct: HDAC1 (full length, C-terminal His tag, C-terminal FLAG tag, BPS Bioscience, cat. #: 50051); FLAG (C); purchased BPS Bioscience 50051

[2] = biological target: T1, HDAC1; test: Recombinant HDAC µSPOT microarray binding assay;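 note: slides with spotted peptides incubated with six HDAC concentrations in HEPES buffer pH 7.4, spot intensities fitted by four-parameter logistic, EC50 as enzyme concentration giving half-maximal binding signal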
Method: (§1) Experiments were performed twice, data were obtained with Array Analyze software (Active Motif), and data analysis and representation were performed with the GraphPad Prism 7 software. Outliers were curated manually and data were fitted to nonlinear regression [log(agonist) vs. response—variable slope (four parameters)]. […] Non-sigmoidal curves were denoted as not determined (N.D.) The pEC50 values were determined as the concentration of HDAC enzyme required for half-maximal binding signal.

[3] = biological target: T2, HDAC3/NCoR2 (Homo sapiens, UniProt O15379); test: Recombinant HDAC µSPOT microarray binding assay;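 note: peptide spots on cellulose slides incubated with rising HDAC enzyme concentrations, imaged together, four-parameter logistic fit, EC50 is enzyme concentration giving half-maximal binding signal, two experiments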
T2 construct: HDAC3/NCoR2 (full length, C-terminal His tag, NCoR2 N-terminal GST tag); purchased BPS Bioscience 50003
Method: as §1

[4] = biological target: T3, HDAC8 (Homo sapiens, UniProt Q9BY41); test: HDAC inhibition assay (fluorogenic, Ac-Leu-Gly-Lys(Tfa)-AMC); type: biochemical; details: for HDAC8 dose-response data (relative enzyme activity, replicate values), Fig. 6 + S. Fig. 10: two replicate columns per inhibitor; for HDAC8 dose-response data (relative enzyme activity), Fig. 6 + S. Fig. 10: duplicate columns
T3 construct: HDAC8 (full length, C-terminal His tag, BPS Bioscience, cat. #: 50008); purchased BPS Bioscience 50008
T3 sequence (Q9BY41 1-377): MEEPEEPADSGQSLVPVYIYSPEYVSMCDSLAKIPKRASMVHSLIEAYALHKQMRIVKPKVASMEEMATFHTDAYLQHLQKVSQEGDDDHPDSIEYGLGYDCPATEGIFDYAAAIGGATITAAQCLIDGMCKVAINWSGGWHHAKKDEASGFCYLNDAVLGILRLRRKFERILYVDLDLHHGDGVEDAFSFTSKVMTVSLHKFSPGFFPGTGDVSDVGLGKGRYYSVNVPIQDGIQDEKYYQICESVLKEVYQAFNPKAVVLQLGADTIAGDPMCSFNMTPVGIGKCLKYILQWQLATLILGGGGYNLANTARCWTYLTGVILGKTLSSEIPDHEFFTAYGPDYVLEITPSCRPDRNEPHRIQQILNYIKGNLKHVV

[5] = biological target: T2, HDAC3/NCoR2; test: HDAC inhibition assay (fluorogenic, Ac-Leu-Gly-Lys(Ac)-AMC); type: biochemical

T1 sequence (Q13547 whole entry): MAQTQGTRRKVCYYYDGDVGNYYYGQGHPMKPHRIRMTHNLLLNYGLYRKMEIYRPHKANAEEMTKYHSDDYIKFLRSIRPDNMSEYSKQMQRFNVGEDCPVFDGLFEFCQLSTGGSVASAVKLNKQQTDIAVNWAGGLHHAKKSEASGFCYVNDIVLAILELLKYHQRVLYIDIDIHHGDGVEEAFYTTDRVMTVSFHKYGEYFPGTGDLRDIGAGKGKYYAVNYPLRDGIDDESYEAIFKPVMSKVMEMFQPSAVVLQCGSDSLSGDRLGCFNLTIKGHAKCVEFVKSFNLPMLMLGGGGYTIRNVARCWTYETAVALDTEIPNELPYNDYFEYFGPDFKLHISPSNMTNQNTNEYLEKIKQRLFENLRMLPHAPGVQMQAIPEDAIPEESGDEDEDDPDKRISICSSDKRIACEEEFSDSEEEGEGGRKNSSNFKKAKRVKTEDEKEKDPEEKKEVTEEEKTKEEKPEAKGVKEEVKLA
T2 sequence (O15379 whole entry): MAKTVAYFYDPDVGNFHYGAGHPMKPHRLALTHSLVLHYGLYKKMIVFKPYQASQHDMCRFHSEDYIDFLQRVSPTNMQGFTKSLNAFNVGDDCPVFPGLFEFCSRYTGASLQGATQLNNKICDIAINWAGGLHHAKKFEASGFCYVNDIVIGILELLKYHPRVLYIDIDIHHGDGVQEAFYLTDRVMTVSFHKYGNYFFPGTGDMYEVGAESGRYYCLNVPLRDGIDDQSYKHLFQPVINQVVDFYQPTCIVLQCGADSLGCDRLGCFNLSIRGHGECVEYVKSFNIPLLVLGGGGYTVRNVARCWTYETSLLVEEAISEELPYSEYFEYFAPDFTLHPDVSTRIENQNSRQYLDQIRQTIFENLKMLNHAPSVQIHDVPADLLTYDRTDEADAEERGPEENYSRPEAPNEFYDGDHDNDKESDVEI
T2 sequence (Q9Y618 389-480 partner limits assumed): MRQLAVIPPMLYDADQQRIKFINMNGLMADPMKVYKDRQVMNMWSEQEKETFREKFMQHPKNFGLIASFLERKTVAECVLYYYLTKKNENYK

## CC[C@H](C)[C@H](NC(=O)[C@H](CCC(=O)O)NC(=O)[C@H](CCCNC(=N)N)NC(=O)[C@H](CO)NC(=O)[C@@H](NC(=O)[C@@H](NC(=O)[C@@H](NC(=O)[C@H](CO)NC(=O)[C@H](CCCNC(=N)N)NC(=O)[C@H](CCCCCC(=O)NO)NC(=O)[C@H](CC(N)=O)NC(=O)[C@H](Cc1ccc(O)cc1)NC(=O)[C@H](Cc1c[nH]cn1)NC(C)=O)[C@@H](C)O)[C@@H](C)CC)[C@@H](C)O)C(=O)N[C@@H](CCC(N)=O)C(=O)N[C@H](C(=O)N[C@@H](C)C(=O)N[C@@H](Cc1c[nH]c2ccccc12)C(N)=O)[C@@H](C)O [12a] (Ac-HYN[Asu](NHOH)RSTITSREIQTAW-NH2)
[1]
  Ki: 27.1 ± 0.1 nM
[1]; log[inhibitor(M)] -4.30103
  HDAC1 dose-response data (relative enzyme activity), Fig. 6 + S. Fig. 10: 0.9347 and 0.662
[1]; log[inhibitor(M)] -5
  HDAC1 dose-response data (relative enzyme activity), Fig. 6 + S. Fig. 10: 2.038 and 1.878
[1]; log[inhibitor(M)] -5.69897
  HDAC1 dose-response data (relative enzyme activity), Fig. 6 + S. Fig. 10: 7.98 and 7.034
[1]; log[inhibitor(M)] -6.39794
  HDAC1 dose-response data (relative enzyme activity), Fig. 6 + S. Fig. 10: 27.0557 and 22.8999
[1]; log[inhibitor(M)] -7.09691
  HDAC1 dose-response data (relative enzyme activity), Fig. 6 + S. Fig. 10: 60.7171 and 55.9643
[1]; log[inhibitor(M)] -7.79588
  HDAC1 dose-response data (relative enzyme activity), Fig. 6 + S. Fig. 10: 89.3741 and 84.8138
[1]; log[inhibitor(M)] -8.49485
  HDAC1 dose-response data (relative enzyme activity), Fig. 6 + S. Fig. 10: 97.3199 and 95.6638
[1]; log[inhibitor(M)] -9.19382
  HDAC1 dose-response data (relative enzyme activity), Fig. 6 + S. Fig. 10: 101.477 and 97.552
[1]; log[inhibitor(M)] -9.89279
  HDAC1 dose-response data (relative enzyme activity), Fig. 6 + S. Fig. 10: 101.081 and 96.9441
[1]; log[inhibitor(M)] -10,5850266520292*, whole line marked with asterisks
  HDAC1 dose-response data (relative enzyme activity), Fig. 6 + S. Fig. 10: 100,220716* and 99,6623992*
[2]
  EC50: > 25.1 nM
[3]
  EC50: 2.57 nM
[4]
  Ki: 672 ± 2 nM
[4]; Inhibitor conc [M] -8.49485 (log)
  HDAC8 dose-response data (relative enzyme activity, replicate values), Fig. 6 + S. Fig. 10: 96.596 and 95.5531
[4]; Inhibitor conc [M] -9.19382 (log)
  HDAC8 dose-response data (relative enzyme activity, replicate values), Fig. 6 + S. Fig. 10: 96.9206 and 97.7957
[4]; Inhibitor conc [M] given as -7.09691 (log)
  HDAC8 dose-response data (relative enzyme activity, replicate values), Fig. 6 + S. Fig. 10: 89.149 and 90.0695
[4]; Inhibitor conc [M] given as -7.79588 (log)
  HDAC8 dose-response data (relative enzyme activity, replicate values), Fig. 6 + S. Fig. 10: 96.5655 and 96.7922
[4]; Inhibitor conc [M] given as -9.89279 (log)
  HDAC8 dose-response data (relative enzyme activity, replicate values), Fig. 6 + S. Fig. 10: 97.4718 and 97.8478
[4]; Inhibitor conc [M] given as -10.585 (log)
  HDAC8 dose-response data (relative enzyme activity, replicate values), Fig. 6 + S. Fig. 10: 100,321515* and 100,605272*
[4]; Inhibitor conc [M] -4.30103
  HDAC8 dose-response data (relative enzyme activity), Fig. 6 + S. Fig. 10: 4.131 and 3.99
[4]; Inhibitor conc [M] -5
  HDAC8 dose-response data (relative enzyme activity), Fig. 6 + S. Fig. 10: 13.2204 and 13.7487
[4]; Inhibitor conc [M] -5.69897
  HDAC8 dose-response data (relative enzyme activity), Fig. 6 + S. Fig. 10: 34.8849 and 37.2156
[4]; Inhibitor conc [M] -6.39794
  HDAC8 dose-response data (relative enzyme activity), Fig. 6 + S. Fig. 10: 67.169 and 68.3219
[5]
  Ki: 10.6 ± 0.1 nM
[5]; log[inhibitor(M)] -4.30103, duplicate columns
  HDAC3 dose-response data (relative enzyme activity), Fig. 6 + S. Fig. 10: 0.7368 and 0.5682
